Measured values: paper PMC4769319, “Cohesin Releases DNA through Asymmetric ATPase-Driven Ring Opening” (Molecular Cell, 2016)

Biological target: T1, Smc1/Smc3 heterodimer with Scc1-C (cohesin) (Saccharomyces cerevisiae, UniProt P32908+P47037, P32908:K39I, form not given)
T1 construct: N-terminal tags; Sf9 insect cells; fluorescently labelled for MST; with Sister chromatid cohesion protein 1
T1 sequence (P32908 1-1225 K39I): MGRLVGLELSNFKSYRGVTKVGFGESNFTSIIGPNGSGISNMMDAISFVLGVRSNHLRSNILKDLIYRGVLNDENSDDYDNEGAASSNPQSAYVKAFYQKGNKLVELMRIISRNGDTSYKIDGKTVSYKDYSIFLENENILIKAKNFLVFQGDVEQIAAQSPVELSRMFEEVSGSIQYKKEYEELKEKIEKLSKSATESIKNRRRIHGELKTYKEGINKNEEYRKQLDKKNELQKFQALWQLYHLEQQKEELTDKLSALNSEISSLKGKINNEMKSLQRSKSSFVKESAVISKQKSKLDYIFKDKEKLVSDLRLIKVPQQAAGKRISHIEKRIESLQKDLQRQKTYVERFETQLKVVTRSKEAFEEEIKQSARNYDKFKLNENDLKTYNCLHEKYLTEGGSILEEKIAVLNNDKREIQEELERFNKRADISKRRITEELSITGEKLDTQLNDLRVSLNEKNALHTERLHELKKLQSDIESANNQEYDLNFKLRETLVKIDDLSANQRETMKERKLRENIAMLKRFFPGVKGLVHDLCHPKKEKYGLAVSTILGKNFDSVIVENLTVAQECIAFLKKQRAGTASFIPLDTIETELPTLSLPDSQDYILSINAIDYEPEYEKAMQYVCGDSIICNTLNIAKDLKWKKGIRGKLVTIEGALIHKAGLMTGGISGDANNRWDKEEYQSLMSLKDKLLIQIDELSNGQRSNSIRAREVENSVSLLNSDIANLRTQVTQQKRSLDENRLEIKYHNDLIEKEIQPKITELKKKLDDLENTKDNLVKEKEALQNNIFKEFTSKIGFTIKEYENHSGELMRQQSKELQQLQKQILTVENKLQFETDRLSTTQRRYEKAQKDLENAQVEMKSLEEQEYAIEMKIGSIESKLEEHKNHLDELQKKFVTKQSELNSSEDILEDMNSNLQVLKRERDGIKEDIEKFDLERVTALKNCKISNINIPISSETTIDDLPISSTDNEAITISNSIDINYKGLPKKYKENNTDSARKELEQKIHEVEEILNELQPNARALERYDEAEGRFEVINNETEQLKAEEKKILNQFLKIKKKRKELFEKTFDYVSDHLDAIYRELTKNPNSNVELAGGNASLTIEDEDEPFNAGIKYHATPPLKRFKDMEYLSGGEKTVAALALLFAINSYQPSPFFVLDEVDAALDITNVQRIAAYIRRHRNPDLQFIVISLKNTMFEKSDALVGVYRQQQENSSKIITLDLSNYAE
T1 sequence (P47037 1-1230): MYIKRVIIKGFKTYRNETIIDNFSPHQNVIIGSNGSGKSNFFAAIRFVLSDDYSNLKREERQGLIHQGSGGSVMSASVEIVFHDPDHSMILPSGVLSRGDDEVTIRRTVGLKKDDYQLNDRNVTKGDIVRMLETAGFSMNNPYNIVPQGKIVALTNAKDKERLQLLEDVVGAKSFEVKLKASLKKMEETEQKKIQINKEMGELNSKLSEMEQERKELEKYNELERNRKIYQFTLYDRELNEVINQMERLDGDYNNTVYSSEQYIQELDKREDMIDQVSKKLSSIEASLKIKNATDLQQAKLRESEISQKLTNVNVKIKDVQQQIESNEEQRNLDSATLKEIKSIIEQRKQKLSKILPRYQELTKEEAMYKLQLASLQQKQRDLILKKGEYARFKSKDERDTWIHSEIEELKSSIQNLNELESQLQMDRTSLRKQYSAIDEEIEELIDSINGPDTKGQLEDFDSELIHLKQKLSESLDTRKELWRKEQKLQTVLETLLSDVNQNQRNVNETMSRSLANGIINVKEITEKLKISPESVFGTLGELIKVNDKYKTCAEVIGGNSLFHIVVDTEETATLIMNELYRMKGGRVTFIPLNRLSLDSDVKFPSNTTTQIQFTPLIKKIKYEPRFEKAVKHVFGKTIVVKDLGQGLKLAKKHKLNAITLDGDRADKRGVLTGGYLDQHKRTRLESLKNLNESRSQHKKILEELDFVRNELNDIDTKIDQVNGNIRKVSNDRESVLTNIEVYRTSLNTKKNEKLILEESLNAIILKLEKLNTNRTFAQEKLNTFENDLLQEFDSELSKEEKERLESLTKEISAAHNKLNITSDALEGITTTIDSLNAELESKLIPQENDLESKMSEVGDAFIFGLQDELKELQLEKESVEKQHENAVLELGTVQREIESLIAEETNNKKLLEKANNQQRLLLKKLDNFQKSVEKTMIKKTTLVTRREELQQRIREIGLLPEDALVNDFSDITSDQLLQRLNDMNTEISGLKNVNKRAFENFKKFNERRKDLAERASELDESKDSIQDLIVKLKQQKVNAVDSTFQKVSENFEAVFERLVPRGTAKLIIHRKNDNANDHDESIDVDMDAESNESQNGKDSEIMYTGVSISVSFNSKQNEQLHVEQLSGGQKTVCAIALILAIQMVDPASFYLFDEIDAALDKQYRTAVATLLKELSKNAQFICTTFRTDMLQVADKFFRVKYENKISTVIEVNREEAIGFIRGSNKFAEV
T1 sequence (Q12158 1-566 partner): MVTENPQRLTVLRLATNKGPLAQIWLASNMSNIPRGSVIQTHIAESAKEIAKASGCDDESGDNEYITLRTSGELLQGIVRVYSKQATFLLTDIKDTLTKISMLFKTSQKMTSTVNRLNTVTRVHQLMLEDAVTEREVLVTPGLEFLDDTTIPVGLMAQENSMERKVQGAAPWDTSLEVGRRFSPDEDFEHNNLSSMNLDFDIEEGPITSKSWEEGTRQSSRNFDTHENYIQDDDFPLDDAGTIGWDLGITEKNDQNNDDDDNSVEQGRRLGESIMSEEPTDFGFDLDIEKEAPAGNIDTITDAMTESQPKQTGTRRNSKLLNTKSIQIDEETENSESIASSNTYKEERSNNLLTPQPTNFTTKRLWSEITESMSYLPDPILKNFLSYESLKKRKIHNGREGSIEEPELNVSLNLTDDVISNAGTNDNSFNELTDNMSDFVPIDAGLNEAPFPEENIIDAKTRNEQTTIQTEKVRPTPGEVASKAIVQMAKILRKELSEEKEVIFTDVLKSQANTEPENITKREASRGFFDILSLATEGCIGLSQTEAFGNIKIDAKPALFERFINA
Experiment: microscale thermophoresis
Settings: fluorescently labelled protein; Smc1 co-purified with Scc1-C, plus Smc3; binding abrogated

| SMILES | microscale thermophoresis |
| --- | --- |
| Nc1ncnc2c1ncn2[C@@H]1O[C@H](COP(=O)(O)OP(=O)(O)O)[C@@H](O)[C@H]1O [ADP] | each of the Walker A mutations efficiently abrogated binding to ATP and ADP |
| Nc1ncnc2c1ncn2[C@@H]1O[C@H](COP(=O)(O)OP(=O)(O)OP(=O)(O)O)[C@@H](O)[C@H]1O [ATP] | each of the Walker A mutations efficiently abrogated binding to ATP and ADP |
